{"source": "patent US9314525B2", "about": "(Axelar AB, priority 2010, dated 2016)", "key": {"[1]": {"test": "Solubility in 1% SDS in water by LC-UV", "assay_type": "physicochemical", "conditions": "after 24 hours rotation, ambient temperature", "protocol": "The solubility was determined in triplicate by use of LC-UV chromatography. […] The substance was rotated in the specific medium at ambient temperature for 24 hours, followed by filtering the supernatant using a hydrophilic PVDF (Millipore Corp.) 0.22 μm filter. The samples were then diluted with a 1:1 mixture of mobile phase A and B (see below) and analyzed using an Xterra™ MS C18, 50×2.1 mm column with UV detection at 288 nm. The mobile phase consisted of acetonitrile, water and trifluoroacetic acid, 5:95:0.1 (A) and 99:1:0.1 (B).\nSolubility determinations were performed in 1% sodium dodecyl sulfate (SDS) in water."}, "[2]": {"biological_target": "insulin-like growth factor-1 receptor (IGF-1R) (Homo sapiens, UniProt P08069)", "sequence (P08069 31-1367, species assumed)": "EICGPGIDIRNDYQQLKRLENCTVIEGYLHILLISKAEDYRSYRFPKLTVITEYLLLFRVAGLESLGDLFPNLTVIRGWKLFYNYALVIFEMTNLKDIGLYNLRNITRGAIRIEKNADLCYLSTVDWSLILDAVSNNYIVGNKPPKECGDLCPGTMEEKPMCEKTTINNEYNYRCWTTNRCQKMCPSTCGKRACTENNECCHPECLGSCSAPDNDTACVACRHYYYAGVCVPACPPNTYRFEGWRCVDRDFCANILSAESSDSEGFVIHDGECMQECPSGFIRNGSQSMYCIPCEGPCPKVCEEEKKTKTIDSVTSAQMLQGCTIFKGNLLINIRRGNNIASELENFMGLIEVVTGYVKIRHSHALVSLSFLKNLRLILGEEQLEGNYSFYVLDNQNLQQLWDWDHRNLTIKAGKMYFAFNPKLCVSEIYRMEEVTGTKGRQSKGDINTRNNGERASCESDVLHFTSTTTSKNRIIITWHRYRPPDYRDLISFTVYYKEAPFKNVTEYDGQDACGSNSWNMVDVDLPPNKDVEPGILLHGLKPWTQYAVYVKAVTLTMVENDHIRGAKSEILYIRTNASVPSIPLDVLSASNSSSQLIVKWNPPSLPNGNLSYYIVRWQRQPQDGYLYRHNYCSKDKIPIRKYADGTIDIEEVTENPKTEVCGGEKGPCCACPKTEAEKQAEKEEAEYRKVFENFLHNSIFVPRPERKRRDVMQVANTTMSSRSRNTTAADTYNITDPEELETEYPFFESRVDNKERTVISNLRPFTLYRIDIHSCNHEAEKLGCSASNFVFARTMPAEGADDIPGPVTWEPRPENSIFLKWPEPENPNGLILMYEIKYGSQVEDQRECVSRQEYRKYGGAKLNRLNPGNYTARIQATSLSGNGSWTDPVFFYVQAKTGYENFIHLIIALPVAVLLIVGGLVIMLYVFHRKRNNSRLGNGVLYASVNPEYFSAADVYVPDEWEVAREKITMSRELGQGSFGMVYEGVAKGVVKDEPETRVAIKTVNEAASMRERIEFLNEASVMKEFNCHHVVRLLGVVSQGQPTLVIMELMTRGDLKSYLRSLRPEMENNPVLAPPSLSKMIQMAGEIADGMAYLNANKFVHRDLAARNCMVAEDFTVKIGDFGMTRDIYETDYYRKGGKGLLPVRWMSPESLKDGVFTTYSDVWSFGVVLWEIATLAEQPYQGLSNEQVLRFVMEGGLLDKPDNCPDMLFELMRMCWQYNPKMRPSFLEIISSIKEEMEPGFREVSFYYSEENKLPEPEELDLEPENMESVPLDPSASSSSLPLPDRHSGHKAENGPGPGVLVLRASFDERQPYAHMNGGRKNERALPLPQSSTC", "conditions": "disclosed in WO 02/102804; cited from earlier work"}, "[3]": {"test": "Dynamic Vapour Sorption (DVS) hygroscopicity", "assay_type": "physicochemical", "conditions": "from 0 to 90% RH, 25° C.", "protocol": "The hygroscopicity of the samples was studied by Dynamic Vapor Sorption Gravimetry (DVS) using a DVS-1 (Surface Measurement Ltd., UK).\nEach sample was run in three consecutive full cycles. The condition to proceed to the next level of RH was a weight increase below or equal to 0.001% within 15 minutes, with a maximum total time per step of 24 hours. The temperature was kept at 25° C."}, "[4]": {"test": "Physical stability of polymorphs stirred in water, sonicated or mortared (XRPD)", "assay_type": "physicochemical", "conditions": "for Solid form by XRPD after stirring in water: slurry in water rotated for 24 hours", "protocol": "The slurry was centrifuged and the supernatant was removed. The solid was dried under vacuum overnight and the sample was thereafter, stored at ambient conditions.\nThe slurry was centrifuged 3000 rpm for 10 minutes and the supernatant was removed. The solid was freezed (in a freezer) and freeze-dried overnight. The sample was kept at ambient conditions for 2 hours before the XRPD analysis."}, "[5]": {"test": "Slurry experiments with mixture of polymorphs B and C in saturated picropodophyllin solutions", "assay_type": "physicochemical", "protocol": "The solid was filtered off and the saturated picropodophyllin solutions were used in the slurry experiment below.\nThe solid was filtered off using a glass filter and stored at ambient conditions for 2 hours.\nThe solid was filtered off using a glass filter and left on the glass filter for 30 minutes.\nThe slurry was slowly stirred overnight. The slurry was removed from the oil bath and immediately filtered through a glass filter. The solid was left on the glass filter for 30 minutes.\nThe slurry was slowly stirred for 4 hours. The slurry was removed from the oil bath and immediately filtered through a glass filter. The solid was left on the glass filter for 30 minutes."}, "[6]": {"test": "Powder dissolution profiling (intrinsic dissolution rate and apparent solubility) in PhB 6.5 and FeSSIF pH 6.5", "protocol": "Phosphate buffer pH 6.5 (PhB 6.5) was prepared according to a protocol by Galia and co-workers (Galia, E., et al. Evaluation of various dissolution media for predicting in vivo performance of class I and II drugs. Pharm Res 15, pp. 698-705 (1998)). Briefly, 1000 mL of […] Na2HPO4 buffer pH 6.5 was prepared by dissolving 3.95 g Na2HPO4xH2O, 6.19 g NaCl and 0.42 g NaOH in a volumetric flask by adding purified water. The pH was adjusted to pH to 6.5 by titration with 0.5 M NaOH and the volume was adjusted to 1000 mL with purified water. This buffer was sterile filtered and thereafter stored in refrigerator. Fed state simulated intestinal fluid (FeSSIF pH 6.5) was prepared fresh on the day of the experiment by dissolving 1.12 g of Na-taurocholate/lecithin powder (ePhares, Switzerland) in 100 mL PhB ((Galia, E., et al. Evaluation of various dissolution media for predicting in vivo performance of class I and II drugs. Pharm Res 15, pp. 698-705 (1998)). The media was stirred and preheated to 37±1° C. resulting in clear solution of pH 6.5 which contained a mixed micelle system of 15 mM taurocholate and 3.75 mM lecithin.\nDissolution rate and apparent solubility was measured with the pDISS Profiler™ (pION INC, MA, USA) from 0.3-1.3 mg compound weighed into the vial to which the preheated (37° C.) dissolution medium was added. […] Each UV probe was calibrated with its own standard curve prior to the experiment. The obtained results were analysed with the software accompanying the pDISS equipment.\nThe detailed procedure of the powder dissolution experiments, including the theoretical background, can be found in Avdeef, A., Tsinman, K., Tsinman, O., Sun, N. & Voloboy, D. Miniaturization of powder dissolution measurement and estimation of particle size. Chem Biodivers 6, 1796-1811 (2009); in Fagerberg, J. H., et al. Dissolution Rate and Apparent Solubility of Poorly Soluble Drugs in Biorelevant Dissolution Media. Mol Pharm 7, 1419-1430, (2010); and in Tsinman, K., Avdeef, A., Tsinman, O. & Voloboy, D. Powder dissolution method for estimating rotating disk intrinsic dissolution rates of low solubility drugs. Pharm Res 26, 2093-2100 (2009)."}, "[7]": {"test": "Three month solid state stability study (appearance, XRPD, TGA)", "assay_type": "physicochemical", "conditions": "for TGA mass loss from ambient temperature to 150° C.: after 3 months storage at 40° C./75% RH; for Change in appearance: open containers", "protocol": "Analysis was made by using X-Ray Powder Diffration (XRPD) and Thermogravimetry (TGA).\nExperiments were run as described above using Cu Kα1 radiation (45 kV and 40 mA) at ambient temperature and humidity. Scans were run in continous scan mode in the range 2-50° 2θ using automatic divergence and antiscatter slits with observed length of 10 mm, a step size of 0.013° 2θ and a common counting time of 97.920 seconds.\n(§1) Thermogravimetry (TGA) was performed on a Seiko TG/DTA 6200 and open 90 μl Pt-pans with ca 10 to 20 mg of sample and a nitrogen flow of 200 mL/min. The temperature program was ambient (20° C.) to 400° C. with a heating rate of 10° C./min. A blank was subtracted and the TG data was normalized with respect to sample size and analyzed using the Muse Standard Analysis software, version 6.1 U."}, "[8]": {"test": "Thermogravimetric analysis (TGA)", "assay_type": "physicochemical", "conditions": "initial analysis", "protocol": "as §1, with “Thermogravimetric analysis (TGA)” for “Thermogravimetry (TGA)”, “to 25” for “to 20”, “200 ml/min.” for “200 mL/min.”, “6.1 U (Seiko, Japan).” for “6.1 U.”"}, "[9]": {"conditions": "listed as picropodophyllin polymorph B"}, "[10]": {"conditions": "listed as picropodophyllin polymorph C"}}, "data": [{"smiles": "COc1cc(C2c3cc4c(cc3C(O)[C@H]3COC(=O)[C@@H]23)OCO4)cc(OC)c1OC", "note": "(stereo partly drawn) [picropodophyllin monohydrate, reference compound]", "values": [{"measurement": "Solubility in 1% SDS in water", "setting": "[1]; monohydrate", "result": 200, "unit": "µg/mL"}]}, {"smiles": "COc1cc([C@@H]2c3cc4c(cc3[C@H](O)[C@H]3COC(=O)[C@@H]23)OCO4)cc(OC)c1OC", "note": "[picropodophyllin]", "values": [{"measurement": "Inhibition of IGF-1R", "setting": "[2]", "result": "specific and potent inhibitor"}]}, {"smiles": "COc1cc([C@@H]2c3cc4c(cc3[C@H](O)[C@H]3COC(=O)[C@@H]23)OCO4)cc(OC)c1OC", "note": "[polymorph B, picropodophyllin]", "values": [{"measurement": "DVS mass increase", "setting": "[3]", "result": 0.2, "unit": "%"}, {"measurement": "Solid form by XRPD after stirring in water", "setting": "[4]", "result": "converted to a mixture of mainly picropodophyllin monohydrate and some picropodophyllin polymorph B"}, {"measurement": "Solid form obtained from slurry of polymorphs B and C", "setting": "[5]; acetone saturated with picropodophyllin, five days, ambient temperature", "result": "converted to polymorph C"}, {"measurement": "Solid form obtained from slurry of polymorphs B and C", "setting": "[5]; ethyl acetate saturated with picropodophyllin, five days, ambient temperature", "result": "converted to polymorph C"}, {"measurement": "Solid form obtained from slurry of polymorphs B and C", "setting": "[5]; mesitylene saturated with picropodophyllin, five days, ambient temperature", "result": "converted to polymorph C"}, {"measurement": "Solid form obtained from slurry of polymorphs B and C", "setting": "[5]; mesitylene, 70° C., overnight", "result": "converted to polymorph C"}, {"measurement": "Solid form obtained from slurry of polymorphs B and C", "setting": "[5]; mesitylene, 120° C., 4 hours", "result": "converted to polymorph C"}, {"measurement": "Apparent Solubility assay 1", "setting": "[6]; FeSSIF pH 6.5, 37° C., assay time polymorph B 16 hours, polymorph C 1.3 hours, triplicate", "result": "25.51 ± 0.51", "unit": "µg/mL"}, {"measurement": "Solubility increase in FeSSIF as compared to PhB 6.5", "setting": "[6]; FeSSIF pH 6.5 vs PhB 6.5", "result": 2.2, "unit": "fold"}, {"measurement": "Apparent Solubility assay 1", "setting": "[6]; PhB 6.5, 37° C., assay time polymorph B 19 hours, polymorph C […], mean ± SD, triplicate", "result": "11.72 ± 0.22", "unit": "µg/mL"}, {"measurement": "Solid-state instability (XRPD, TGA)", "setting": "[7]; 3 months storage at 25° C./60% RH", "result": "does not show any sign(s) of solid-state instability"}, {"measurement": "Solid-state instability (XRPD, TGA)", "setting": "[7]; 3 months storage at 40° C./75% RH", "result": "does not show any sign(s) of solid-state instability"}, {"measurement": "TGA mass loss from ambient temperature to 150° C.", "setting": "[7]; [9]", "result": "0.0±0.1", "unit": "%"}, {"measurement": "Change in appearance", "setting": "[7]; 3 months at 25° C./60% RH", "result": "no change in appearance"}, {"measurement": "Change in appearance", "setting": "[7]; 3 months at 40° C./75% RH", "result": "no change in appearance"}, {"measurement": "TGA mass loss from ambient temperature to 150° C.", "setting": "[8]; [9]", "result": "0.0±0.1", "unit": "%"}, {"measurement": "solubility at 24 h", "setting": "[1]; 1% SDS in water, aqueous with cosolvent or surfactant or cyclodextrin, thermodynamic from solid", "result": 700, "unit": "µg/mL"}]}, {"smiles": "COc1cc([C@@H]2c3cc4c(cc3[C@H](O)[C@H]3COC(=O)[C@@H]23)OCO4)cc(OC)c1OC", "note": "[polymorph C, picropodophyllin]", "values": [{"measurement": "Solid form by XRPD after sonication", "setting": "[4]; in purified water, cooled on ice, sonicated for 5 minutes", "result": "no phase change occurred"}, {"measurement": "Solid form by XRPD after mortaring", "setting": "[4]; mortared for 5 minutes in agate mortar", "result": "no phase change occurred"}, {"measurement": "Solid form by XRPD after stirring in water", "setting": "[4]; [10]", "result": "no phase change occurred"}, {"measurement": "solubility", "setting": "[6]; 37 °C, pH 6.5, aqueous buffer, thermodynamic from solid, Apparent Solubility Assay 1 + 2, PhB 6.5, 37° C., assays 1 and 2 combined, mean ± SD", "result": "5.85 ± 0.25", "unit": "µg/mL"}, {"measurement": "solubility", "setting": "[6]; 37 °C, pH 6.5, aqueous buffer, thermodynamic from solid, Apparent Solubility assay 1, PhB 6.5, 37° C., assay time polymorph B 19 hours, polymorph C […], mean ± SD, triplicate", "result": "5.88 ± 0.09", "unit": "µg/mL"}, {"measurement": "solubility at 50 min", "setting": "[6]; 37 °C, pH 6.5, aqueous buffer, thermodynamic from solid, Apparent Solubility assay 2, PhB 6.5, 37° C., assay time 29 hours (value obtained after 50 minutes), mean ± SD, triplicate", "result": "5.81 ± 0.38", "unit": "µg/mL"}, {"measurement": "solubility", "setting": "[6]; 37 °C, pH 6.5, fessif, thermodynamic from solid, Apparent Solubility Assay 1 + 2, FeSSIF pH 6.5, 37° C., assays 1 and 2 combined", "result": "12.6 ± 0.8", "unit": "µg/mL"}, {"measurement": "solubility at 25 h", "setting": "[6]; 37 °C, pH 6.5, fessif, thermodynamic from solid, Apparent Solubility assay 2, FeSSIF pH 6.5, 37° C., assay time 25 hours, triplicate", "result": "12.2 ± 1.07", "unit": "µg/mL"}, {"measurement": "TGA mass loss from ambient temperature to 150° C.", "setting": "[7]; [10]", "result": "0.1±0.1", "unit": "%"}, {"measurement": "TGA mass loss from ambient temperature to 150° C.", "setting": "[8]; [10]", "result": "0.1±0.1", "unit": "%"}, {"measurement": "Solubility in 1% SDS in water", "setting": "[1]; [10]", "result": 400, "unit": "µg/mL"}]}]}
